In patent publication US20180098959A1, “METHODS FOR TREATING CANCER” (BOSTON BIOMEDICAL, INC., priority 2015, published 2018):
Read-outs that look alike come from different tables or passages of the source.

What was measured:
FaDu cancer stem cells = assay: stemness gene expression versus chemo- and targeted therapeutics; type: cell-based; conditions: 24 hours, 2-acetylnaphtho[2,3-b]furan-4,9-dione 2 mM, sunitinib 20 mM, gemcitabine 2 mM, carboplatin 32 mM, FIGS. 4(A)-(D)
Description: FIGS. 4(A)-(D) depict FaDu cancer stem cells that were treated for 24 hours with DMSO and: (i) 2-acetylnaphtho[2,3-b]furan-4,9-dione (2 mM) (FIG. 4(A)), (ii) sunitinib (20 mM) (FIG. 4(B)), (iii) gemcitabine (2 mM) (FIG. 4(C)), or (iv) carboplatin (32 mM) (FIG. 4(D)).

mCRC = conditions: Single Agent, panitumumab value for K-Ras WT, cited from earlier work

Row | Molecule | expression of self-renewal / CSC genes (β-Catenin, Nanog, Smo, Sox2) (FaDu cancer stem cells) | Historical DCR (in Evaluable patients with mCRC) (mCRC) | Historical DCR (in Evaluable patients with mCRC) (mCRC; listed as panitumumab) | Historical DCR (in Evaluable patients with mCRC) (mCRC; listed as capecitabine)
1 | O=C1[O][Pt]2([NH][C@@H]3CCCC[C@H]3[NH]2)[O]C1=O [oxaliplatin] | increased CSC gene expression in certain cases |  |  | 
2 | Nc1ccn([C@@H]2O[C@H](CO)[C@@H](O)C2(F)F)c(=O)n1 [gemcitabine] | increased CSC gene expression in certain cases |  |  | 
3 | N.N.O=C([O-])C1(C(=O)[O-])CCC1.[Pt+2] [carboplatin] | increased CSC gene expression in certain cases |  |  | 
4 | panitumumab |  | 30-40% (K-Ras WT) | 30-40% | 
5 | CCCCCOC(=O)Nc1nc(=O)n([C@@H]2O[C@H](C)[C@@H](O)[C@H]2O)cc1F [Capecitabine, capecitabine] |  | 15% |  | 15%
